# Measurements taken from PMC5741510 (Cell chemical biology, 2017).
# Target: dihydroorotate dehydrogenase (DHODH) (Escherichia coli, UniProt P0A7E1)
# Experiment: continuous DCIP-reduction assay at […] nm, Lineweaver-Burk analysis
# Assay type: biochemical
# dihydroorotate dehydrogenase (DHODH), sequence (P0A7E1 whole entry): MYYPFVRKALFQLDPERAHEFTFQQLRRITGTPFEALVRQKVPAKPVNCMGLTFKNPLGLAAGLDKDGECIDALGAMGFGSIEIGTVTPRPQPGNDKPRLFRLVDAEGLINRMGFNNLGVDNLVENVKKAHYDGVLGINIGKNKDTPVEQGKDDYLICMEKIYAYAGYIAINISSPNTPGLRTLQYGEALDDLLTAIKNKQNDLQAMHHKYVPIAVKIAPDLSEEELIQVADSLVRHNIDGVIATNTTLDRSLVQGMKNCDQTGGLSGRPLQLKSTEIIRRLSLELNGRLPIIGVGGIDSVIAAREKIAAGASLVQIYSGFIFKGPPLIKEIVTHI
row,Compound,Ki [nM]
1,"CCCCCCC=CCc1nc2ccccc2c(O)c1C [HMNQ, 4-hydroxy-3-methyl-2-(2-nonenyl)-quinoline]",51
2,"CCCCCCCc1cc(=O)c2ccccc2n1O [HQNO, 2-heptyl-4(1H)-quinolone N-oxide]",239
